Assay results published in patent US8440637B2, “Combination treatment for the treatment of hepatitis C virus infection” (priority 2007, dated 2013).
Strand notation (5' to 3'): a small letter for the sugar, then the base; units joined by * are phosphorothioate-linked, units joined directly phosphodiester-linked; [ ] holds rarer units or linkages, { } end groups; capitals alone tell only the bases. l = locked nucleic acid (LNA); [5mC] = 5-methylcytosine; d = 2'-deoxy (DNA)

Columns and labels:
[1] = system: miR-122a; experiment: miR-122a levels in mouse liver by microRNA specific qPCR; type: in vivo; conditions: 25 mg/kg i.v. on 3 successive days; 24 hour after last dose
Description: Total RNA was extracted from liver samples as described above and analysed for miR-122a levels by microRNA specific QPCR.
In vivo study: Ten groups of animals (female C57/BL6; 3 mice per group) were treated in the following manner. Group 1 animals were injected with 0.2 ml saline by i.p. on day 0, day 2 and day 4. Groups 2-10 were dosed by i.p. with three different conc. (25 mg/kg, 5 mg/kg and 1 mg/kg) of either LNA antimiR-122a/SEQ ID NO: 61 (group 2-4), LNA antimir-122a/SEQ ID NO: 66 (group 5-7) or LNA antimir-122a/SEQ ID NO: 63 (group 8-10); the LNA antimir-122a sequences are given in the Table 1. All three LNA antimiR-122a oligonucleotides target the liver-specific miR-122a. The doses were calculated from the Day 0 body weights of each animal.
The animals were sacrificed 48 hours after last dose (Day 6), retro-orbital blood was collected in tubes containing EDTA and the plasma fraction harvested and stored frozen −80° C. for cholesterol analysis. At sacrifice livers were dissected and one portion was cut into 5 mm cubes and immersed in 5 volumes of ice-cold RNAlater. A second portion was snap frozen in liquid nitrogen and stored for cryo-sectioning.
Total RNA was extracted from liver samples using Trizol reagent according to the manufacturer's recommendations (Invitrogen, USA) and analysed for miR-122a levels by microRNA-specific QPCR according to the manufacturer's recommendations (Ambion, USA). […]
NMRI female mice were treated with indicated doses of LNA-antimiR (SEQ ID NO: 61) along with a mismatch control (m, SEQ ID NO: 65), saline and antagomir (SPC3595) for three consecutive days and sacrificed 24 hours after last dose (as in example 11 “old design”, n=5). miR-122 levels were analyzed by qPCR and normalized to the saline treated group.
C57BL/6J female mice were fed on high fat diet for 13 weeks before the initiation of the SEQ ID NO: 63 treatment. […] Both hypercholesterolemic and normal mice were treated i.p. twice weekly with 5 mg/kg SEQ ID NO: 63 and the corresponding mismatch control for a study period of 5½ weeks. Blood samples were collected weekly and total plasma cholesterol was measured during the entire course of the study. Upon sacrificing the mice, liver and blood samples were prepared for total RNA extraction, miRNA and mRNA quantification, assessment of the serum transaminase levels, and liver histology.
The miR-122 and let-7a microRNA levels were quantified with TaqMan microRNA Assay (Applied Biosystems) following the manufacturer's instructions. The RT reaction was diluted ten times in water and subsequently used for real time PCR amplification according to the manufacturer's instructions. A two-fold cDNA dilution series from liver total RNA of a saline-treated animal or mock transfected cells cDNA reaction (using 2.5 times more total RNA than in samples) served as standard to ensure a linear range (Ct versus relative copy number) of the amplification. Applied Biosystems 7500 or 7900 real-time PCR instrument was used for amplification.

[2] = system: miR-122a; experiment: Melting temperature (Tm) of LNA anti-miR/miR-122a RNA duplex; type: physicochemical, human; conditions: Table 2; towards synthetic miR-122a RNA oligonucleotide with phosphorothioate linkages; PS backbone
Description: The melting temperatures were assessed towards the mature miR-122a sequence, using a synthetic miR-122a RNA oligonucleotide with phosphorothioate linkaged.
The LNA anti-miR/miR-122a oligo duplex was diluted to 3 μM in 500 μl RNase free H2O, which was then mixed with 500 μl 2× dimerization buffer (final oligo/duplex conc. 1.5 μM, 2× Tm buffer: 200 mM NaCl, 0.2 mM EDTA, 20 mM NaP, pH 7.0, DEPC treated to remove RNases). The mix was first heated to 95 degrees for 3 minutes, then allowed to cool at room temperature (RT) for 30 minutes.
Following RT incubation Tm was measured on Lambda 40 UV/VIS Spectrophotometer with peltier temperature progammer PTP6 using PE Templab software (Perkin Elmer). The temperature was ramped up from 20° C. to 95° C. and then down again to 20° C., continuously recording absorption at 260 nm. First derivative and local maximums of both the melting and annealing was used to assess melting/annealing point (Tm), both should give similar/same Tm values. For the first derivative 91 points was used to calculate the slope.

[3] = system: ApoB-100 mRNA; experiment: ApoB-100 mRNA expression in liver by qPCR after dosing apoB antisense oligonucleotides; type: in vivo, mouse; conditions: for ApoB-100 mRNA down-regulation (in words): 10, 15 or 25 mg/kg SEQ ID NO 34, 25 mg/kg SEQ ID NO 17; for down regulation of ApoB-100 mRNA relative to saline: single dose of 10, 15 or 25 mg/kg, C57BL/6 female mice, 24 hours after dosing; for reduction of ApoB-100 mRNA expression: day 8
Description: (§1) In this study 5 mg/kg/dose were dosed on 3 consecutive days (one dose/day i.v.) and animals were sacrificed 24 hours after last dosing. At sacrifice, liver and retro orbital sinus blood was sampled. Serum was prepared from blood for analysis of cholesterol. RNA was isolated from the liver and the expression of ApoB-100 mRNA was measured.
(§2) In this study three different concentrations (10, 15 and 25 mg/kg) of SEQ ID NO 17 (Table 1) and SEQ ID NO 34 (Table 1) were examined for duration of action on ApoB-100 mRNA expression and serum cholesterol level. SEQ ID NO 17 and SEQ ID NO 34 were given as a single dose of 10, 15 or 25 mg/kg to C57BL/6 female mice. Mice were sacrificed at different time points (1, 3, 5 and 8 days) after dosing; liver and serum were examined for ApoB-100 mRNA expression, liver oligonucleotide concentration and cholesterol and ALT, respectively.
(§3) Liver sampled at sacrifice was analysed for ApoB-100 mRNA expression by qPCR. Data was normalized to Gapdh and presented relative to the data obtained by dosing saline. One dose of 10, 15 or 25 mg/kg of SEQ ID NO 17 or SEQ ID NO 34 was very effective to down regulate ApoB-100 mRNA in liver (FIG. 3).
A single dose of SEQ ID NO 17 (Table 1) and SEQ ID NO 34 (Table 1) at different concentrations was administered to C57BL/6J mice to find ED50 values for cholesterol. Duration of action was also included in this study, because we previously have seen that maximum effect of a single dose not always was achieved 24 hours after dosing. […] In this study we therefore have chosen lower concentrations (1, 2.5 and 5 mg/kg).
Liver sampled at sacrifice was analysed for ApoB-100 mRNA expression by qPCR. Data was normalized to Gapdh and presented relative to the data obtained by dosing saline. One dose of 10, 15 or 25 mg/kg of SEQ ID NO 17 or SEQ ID NO 34 was very effective to down regulate ApoB-100 mRNA in liver (FIG. 5).
The effect on ApoB-100 mRNA was examined at different days after dosing 1.0 or 5.0 mg/kg (one dose day 0) of the three LNA antisense oligonucleotides 12-mer SEQ ID NO 34 (Table 1), SEQ ID NO 26 (Table 1) 13-mer and 14-mer SEQ ID NO 17 (Table 1) all targeting ApoB mRNA.
as §3, with “Dosing 3* 1” for “One dose of 10, 15”, “5” for “25”, “of SEQ ID NO 34,” for “of”, “26” for “34”, “7). […] SEQ ID NO 17 dosed 3* 1 mg/kg/dose or 5 mg/kg/dose down regulated target mRNA with 50% and 70% respectively.” for “3).”

[4] = system: ApoB-100 mRNA; experiment: Serum total cholesterol after dosing apoB antisense oligonucleotides; type: in vivo, mouse
Description: Total cholesterol level is measured in plasma using a colometric assay Cholesterol CP from ABX Pentra. The cholesterol is measured following enzymatic hydrolysis and oxidation. 21.5 μL water was added to 1.5 μL plasma. 250 μL reagent is added and within 5 min the cholesterol content is measured at a wavelength of 540 nm. Measurements on each animal was made in duplicates. The sensitivity and linearity was tested with 2 fold diluted control compound (ABX Pentra N control). The relative Cholesterol level was determined by subtraction of the background and presented relative to the cholesterol levels in plasma of saline treated mice.
as §1, §2
Blood serum used to measure cholesterol was sampled at sacrifice. Twenty-four hours after dosing SEQ ID NO 17 serum total cholesterol was reduced 25-40%, and dosing SEQ ID NO 34 gave 40-55% reduction in total cholesterol. At day 3, the total cholesterol level was further reduced: SEQ ID NO 17 gave 70-90% reduction in a dose dependent manner after doing 10, 15 or 25 mg/kg. SEQ ID NO 34 reduced total cholesterol with 90-95% relative to the saline control group. At day 5-8 the total cholesterol level increased in all groups except the group dosed SEQ ID NO 17 at 10 mg/kg. (FIG. 4.).
Blood serum was sampled at sacrifice and used to measure cholesterol. The serum total cholesterol level reflected the mRNA expression of ApoB-100; dose dependent reduction with best effect at 5 days after dosing SEQ ID NO 17 at 1 and 2.5 mg/kg and similar effect at days 3, 5 and 8 after dosing 5 mg/kg (50% reduction). Dose dependent effect was also obtained after dosing SEQ ID NO 34 with best effect at day 3 after dosing 5 mg/kg (70% reduction) with following increase in cholesterol level (60% reduction at day 8 and 45% at day 16).
At sacrifice blood for serum was sampled and used to measure cholesterol.

[5] = liver, 3 doses of 5 mg/kg/dose i.v. on consecutive days, 24 hours after last dosing
[6] = single dose of 10, 15 or 25 mg/kg, 24 hours after dosing
[7] = single dose of 10, 15 or 25 mg/kg, day 3

## 5′-ccAttGtcTcaAtcCa-3′ (antisense dC*dC*lA*dT*dT*lG*dT*dC*lT*dC*dA*lA*dT*dC*l[5mC]*dA) [SEQ ID NO: 65, reference compound]
[1]
  miR-122a inhibition in liver (in words): no miR-122a inhibition was detected
[2]
  Tm (° C.): 46 °C

## 5′-CCAttgtcacacTCCa-3′ (antisense l[5mC]*l[5mC]*lA*dT*dT*dG*dT*dC*dA*dC*dA*dC*lT*l[5mC]*l[5mC]*dA) [SEQ ID NO: 62]
[2]
  Tm (° C.): 69 °C

## 5′-Gs^MeCsaststsgsgstsastsTs^MeC-3′ (antisense lG*l[5mC]*dA*dT*dT*dG*dG*dT*dA*dT*lT*l[5mC]) [SEQ ID NO: 34]
[3]
  ApoB-100 mRNA down-regulation (in words): completely down-regulated
[3]; [5]
  down regulation of ApoB-100 mRNA: about 75%
[3]; liver, dosing 3*1 mg/kg i.v.
  down regulation of ApoB-100 mRNA: 60%
[3]; liver, dosing 3*5 mg/kg i.v.
  down regulation of ApoB-100 mRNA: 90%
[3]; liver
  down regulation of ApoB-100 mRNA relative to saline: 90-95%
[3]; single dose 2.5 mg/kg
  reduction of ApoB-100 mRNA expression: 75%
[3]; single dose 5 mg/kg, day 16
  ApoB-100 mRNA down regulation: 75%
[3]; single dose 5 mg/kg, days 5-16
  down regulation of ApoB-100 mRNA: about 75%
[4]; 3 doses of 5 mg/kg/dose i.v., day 3, oligos of different length compared
  effect on serum total cholesterol (in words): the best or the most potent effect
[4]; dosing 3*1 mg/kg
  reduction of serum cholesterol: 60%
[4]; single dose 5 mg/kg, day 3
  reduction of serum total cholesterol: 70%
[4]; single dose 5 mg/kg, day 8
  reduction of serum total cholesterol: 60%
[4]; single dose 5 mg/kg, day 16
  reduction of serum total cholesterol: 45%
[4]; [6]
  reduction of serum total cholesterol: 40-55%
[4]; [7]
  reduction of serum total cholesterol: 90-95%

## 5′-cCatTgtCacActCca-3′ (antisense dC*l[5mC]*dA*dT*lT*dG*dT*l[5mC]*dA*dC*lA*dC*dT*l[5mC]*dC*dA) [SEQ ID NO: 60]
[2]
  Tm (° C.): 75 °C

## 5′-AsGs^MeCsaststsgsgstsastsTs^MeCsAsg-3′ (antisense lA*lG*l[5mC]*dA*dT*dT*dG*dG*dT*dA*dT*lT*l[5mC]*lA*dG) [SEQ ID NO: 16]
[3]; [5]
  down regulation of ApoB-100 mRNA: 25-30%
[4]; 3 doses of 5 mg/kg/dose i.v., at sacrifice, day 3
  reduction of serum total cholesterol: about 18%

## 5′-Gs^MeCsaststsgsgstsastsTs^MeCsA-3′ (antisense lG*l[5mC]*dA*dT*dT*dG*dG*dT*dA*dT*lT*l[5mC]*lA) [SEQ ID NO: 26]
[3]; liver, dosing 3*1 mg/kg i.v.
  down regulation of ApoB-100 mRNA: 60%
[3]; liver, dosing 3*5 mg/kg i.v.
  down regulation of ApoB-100 mRNA: 90%
[4]; dosing 3*1 mg/kg
  reduction of serum cholesterol: 60%

## 5′-AsGs^MeCsaststsgsgstsastsTs^MeCsA-3′ (antisense lA*lG*l[5mC]*dA*dT*dT*dG*dG*dT*dA*dT*lT*l[5mC]*lA) [SEQ ID NO: 17]
[3]
  ApoB-100 mRNA down-regulation (in words): completely down-regulated
[3]; [5]
  down regulation of ApoB-100 mRNA: about 75%
[3]; liver, dosing 3*1 mg/kg i.v.
  down regulation of ApoB-100 mRNA: 50%
[3]; liver, dosing 3*5 mg/kg i.v.
  down regulation of ApoB-100 mRNA: 70%
[3]; liver
  down regulation of ApoB-100 mRNA relative to saline: 70-85%
[3]; single dose 5 mg/kg
  reduction of ApoB-100 mRNA expression: 75%
[3]; single dose of 1, 2.5 or 5 mg/kg, C57BL/6J mice
  duration of dose dependent down regulation of ApoB-100 mRNA: 5 days
[4]; dosing 3*1 mg/kg
  reduction of serum cholesterol: 40%
[4]; dosing 3*5 mg/kg/dose
  reduction of serum cholesterol: 70%
[4]; single dose 5 mg/kg, days 3, 5 and 8
  reduction of serum total cholesterol: 50%
[4]; [6]
  reduction of serum total cholesterol: 25-40%
[4]; [7]
  reduction of serum total cholesterol: 70-90%
